Numbers after ± are expanded uncertainties.
Test: molar heat capacity at constant pressure
Settings: 298.15 K; 101.33 kPa; Liquid; Small sample (50 mg) DSC

Structure (SMILES) | molar heat capacity at constant pressure [J/K/mol]
CCCCCC[C@@H](O)C/C=C\CCCCCCCC(=O)O [[R]-12-hydroxy-cis-9-octadecenoic acid] | 626.77 ± 63
CCCCCC[C@@H](O)CC=CCCCCCCCC(=O)OC [[R]-methyl 12-hydroxy-9-octadecenoate] | 696.53 ± 70

Source: the NIST ThermoML archive (doi:10.1016/j.jct.2012.02.006)
